Experimental data taken from ChEMBL document CHEMBL5032522, “N-2-(phenylamino) benzamide derivatives as novel anti-glioblastoma agents: Synthesis and biological evaluation” (Eur J Med Chem, 2021).
The source made the active and inactive calls. No cut-off for these calls is given here.

How the values were obtained:
U-87 MG [1] = assay: Antitumor activity against human U-87 MG cells xenografted in BALB/c nude mouse assessed as tumor growth inhibition at 20 mg/kg, ip bid measured every 3 days for 25 days relative to control; format: functional, U-87MG ATCC; conditions: 600 h, time 25 day, read-out: TGI
U-251 [2] = assay: Inhibition of colony formation in human U-251 cells measured after 8 days by crystal violet staining based assay; format: functional, cell-based; conditions: time 8.0 day
U-87 MG [3] = assay: Antiproliferative activity against human U-87 MG cells assessed as cell survival at <= 1.1 uM measured after 24 hrs by CCK-8 assay; format: functional, U-87MG ATCC; conditions: dose microM <=1.1
U-251 [4] = assay: Inhibition of cell migration in human U-251 cells incubated for 24 hrs by crystal violet staining based light microscopic analysis; format: functional
U-87 MG [5] = assay: Inhibition of cell migration in human U-87 MG cells incubated for 24 hrs by crystal violet staining based light microscopic analysis; format: functional; conditions: U-87MG ATCC
[6] = AUC ( 0 to infinity) in Sprague-Dawley rat at 100 mg/kg, ip measured up to 24 hrs by LC-MS analysis; format: ADME, organism-based; set-up: route intraperitoneal, dose 100 mg/kg, time <=24; conditions: in vivo
[7] = Drug concentration in Sprague-Dawley rat brain at 100 mg/kg, ip measured 6 hrs post administration by LC-MS analysis; format: ADME, organism-based; conditions: read-out: Ct
U-251 [8] = assay: Induction of cell cycle arrest in human U-251 cells assessed as increase in G2 phase accumulation at 10 uM incubated for 72 hrs by propidium iodide/RNase A staining based flow cytometry (reference value: 20.88%); format: functional
U-87 MG [9] = assay: Antiproliferative activity against human U-87 MG cells assessed as inhibition of cell growth measured after 72 hrs by CCK-8 assay; format: functional, cell-based, U-87MG ATCC
U-87 MG [10] = assay: Induction of cell cycle arrest in human U-87 MG assessed as decrease in G0/G1 phase accumulation at 10 uM incubated for 72 hrs by propidium iodide/RNase A staining based flow cytometry; format: functional; conditions: U-87MG ATCC
Rattus norvegicus = species on record: Rattus norvegicus; assay: Upregulation of E-cadherin protein expression in Sprague-Dawley rat orthotopic model inoculated with C6 cells by Western blot analysis; format: functional
DNA topoisomerase 1 = molecular target: T1, DNA topoisomerase 1 (Homo sapiens, UniProt P11387); assay: Inhibition of human topoisomerase I using DNA pBR322 as substrate assessed as DNA relaxation incubated for 45 mins by ethidium bromide staining based agarose gel electrophoresis
T1 sequence (P11387 whole entry): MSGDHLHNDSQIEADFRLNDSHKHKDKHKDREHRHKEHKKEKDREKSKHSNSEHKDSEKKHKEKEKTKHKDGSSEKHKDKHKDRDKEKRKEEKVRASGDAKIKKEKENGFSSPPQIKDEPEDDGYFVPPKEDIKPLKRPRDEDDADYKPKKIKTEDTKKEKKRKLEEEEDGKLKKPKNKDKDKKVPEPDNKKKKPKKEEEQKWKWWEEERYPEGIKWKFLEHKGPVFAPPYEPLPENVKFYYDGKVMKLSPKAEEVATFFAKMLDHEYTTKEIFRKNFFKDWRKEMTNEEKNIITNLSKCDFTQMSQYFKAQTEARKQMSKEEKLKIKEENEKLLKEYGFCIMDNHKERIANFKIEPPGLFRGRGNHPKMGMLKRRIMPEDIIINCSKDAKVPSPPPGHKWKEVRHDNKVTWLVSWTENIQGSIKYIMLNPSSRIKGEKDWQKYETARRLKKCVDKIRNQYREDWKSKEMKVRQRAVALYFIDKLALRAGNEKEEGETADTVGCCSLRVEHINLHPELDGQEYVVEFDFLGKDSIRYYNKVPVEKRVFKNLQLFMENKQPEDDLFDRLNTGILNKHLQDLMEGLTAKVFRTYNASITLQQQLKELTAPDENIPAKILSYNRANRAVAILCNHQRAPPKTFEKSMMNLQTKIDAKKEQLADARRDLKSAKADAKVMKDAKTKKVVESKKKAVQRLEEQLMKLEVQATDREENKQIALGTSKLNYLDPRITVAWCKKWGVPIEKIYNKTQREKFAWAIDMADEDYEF

[11] = Acute toxicity in ip dosed Kunming mouse assessed as lethal dose measured after 14 days; format: organism-based; conditions: in vivo, time 14 day
U-87 MG [12] = assay: Induction of morphological changes in human U-87 MG cells assessed as appearance of shrunken cell bodies at 3.3 uM incubated for 72 hrs by Giemsa staining based light microscopic method; format: functional; conditions: U-87MG ATCC
U-87 MG [13] = assay: Induction of cell cycle arrest in human U-87 MG cells assessed as increase in G2 phase accumulation at 10 uM incubated for 72 hrs by propidium iodide/RNase A staining based flow cytometry; format: functional; conditions: U-87MG ATCC
[14] = AUC (0 to t) in Sprague-Dawley rat at 100 mg/kg, ip measured up to 24 hrs by LC-MS analysis; format: ADME, organism-based; set-up: route intraperitoneal, dose 100 mg/kg, time <=24; conditions: in vivo
U-87 MG [15] = assay: Antitumor activity against human U-87 MG cells xenografted in BALB/c nude mouse assessed as reduction in Ki67 expression in tumor at 20 mg/kg, ip bid measured every 3 days for 25 days by immunohistochemical analysis; format: functional, organism-based; conditions: U-87MG ATCC, time 25.0 day
[16] = molecular target: T2, DNA topoisomerase 1 (Homo sapiens) (UniProt P11387); assay: Inhibition of human topoisomerase I using DNA pBR322 as substrate assessed as DNA intercalation at 100 uM incubated for 30 mins by ethidium bromide staining based agarose gel electrophoresis method
T2 sequence (whole entry): T1 sequence (P11387 whole entry)

U-251 [17] = assay: Induction of morphological changes in human U-251 cells assessed as appearance of spindle cell shape at 3.3 uM incubated for 72 hrs by Giemsa staining based light microscopic method; format: functional
U-87 MG [18] = assay: Induction of morphological changes in human U-87 MG cells assessed as appearance of spindle cell shape at 3.3 uM incubated for 72 hrs by Giemsa staining based light microscopic method; format: functional; conditions: U-87MG ATCC
[19] = molecular target: T3, Prostaglandin G/H synthase 2 (Rattus norvegicus) (UniProt P35355); assay: In vivo inhibition of COX2 in ip dosed orthotopic Sprague-Dawley rat model inoculated with C6 cells assessed as reduction in PGE2 production by ELISA; format: functional, organism-based
T3 sequence (whole entry): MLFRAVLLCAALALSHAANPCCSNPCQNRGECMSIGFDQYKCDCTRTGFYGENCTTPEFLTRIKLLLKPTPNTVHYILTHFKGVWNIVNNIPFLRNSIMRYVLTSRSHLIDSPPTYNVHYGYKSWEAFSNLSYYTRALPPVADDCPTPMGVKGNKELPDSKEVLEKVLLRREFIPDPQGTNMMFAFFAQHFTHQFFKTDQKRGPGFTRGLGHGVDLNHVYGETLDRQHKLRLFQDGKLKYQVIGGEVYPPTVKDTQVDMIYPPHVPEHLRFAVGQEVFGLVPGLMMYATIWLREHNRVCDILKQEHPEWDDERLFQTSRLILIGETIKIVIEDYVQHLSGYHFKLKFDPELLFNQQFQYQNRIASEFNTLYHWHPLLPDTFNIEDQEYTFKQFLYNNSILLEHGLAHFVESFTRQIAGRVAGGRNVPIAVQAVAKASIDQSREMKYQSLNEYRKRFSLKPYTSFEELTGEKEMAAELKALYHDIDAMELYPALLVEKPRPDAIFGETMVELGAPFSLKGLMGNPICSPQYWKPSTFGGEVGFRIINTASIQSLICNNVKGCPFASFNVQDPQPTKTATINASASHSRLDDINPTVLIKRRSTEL

[20] = Acute toxicity in Kunming mouse assessed as death at 500 mg/kg, ip administered as single dose observed every day for 14 days; format: organism-based; conditions: in vivo, 336 h, time 14 day

With `COc1ccc(NC(=O)c2ccccc2Nc2cccc(Cl)c2C)cc1` the inhibition in vivo at 20 mg/kg (U-87 MG [1]) was 69.4%, the inhibition (U-251 [2]) was “Dose-Dependent Effect” and the Survival (U-87 MG [3]) was >80%. The inhibition (U-251 [4]) was “Dose-Dependent Effect”, the inhibition (U-87 MG [5]) was “Dose-Dependent Effect” and the AUC(0-inf) [6] was 86200 ng·h/mL. The concentration at 6 h [7] was 3380 ng/mL, the Activity (U-251 [8]) was 73.72% and the IC50 (U-87 MG [9]) was 4.77 µM. The Activity (U-87 MG [10]) was “Active”, the Activity (Rattus norvegicus) was “Active” and the IC50 (DNA topoisomerase 1) was 33.6 µM. The LD50 at 336 h [11] was 300 mg/kg, the Activity (U-87 MG [12]) was “Active” and the Activity (U-87 MG [13]) was “Active”. The AUC(0-t) at 24 h [14] was 78400 ng·h/mL, the Activity (U-87 MG [15]) was “Active” and the inhibition [16] was “Active”. For the same compound, the Activity (U-251 [17]) was “Active”, the Activity (U-87 MG [18]) was “Active” and the inhibition [19] was “Active”. For the same compound, the Activity [20] was “Toxic”.
With `Cc1c(Cl)cccc1Nc1ccccc1C(=O)Nc1ccc2c(c1)OCO2` the inhibition (U-251 [2]) was “Dose-Dependent Effect”, the Survival (U-87 MG [3]) was >80% and the inhibition (U-251 [4]) was “Dose-Dependent Effect”. For the same compound, the inhibition (U-87 MG [5]) was “Dose-Dependent Effect”, the AUC(0-inf) [6] was 49200 ng·h/mL and the concentration at 6 h [7] was 1410 ng/mL. For the same compound, the Activity (U-251 [8]) was 74.64%, the IC50 (U-87 MG [9]) was 6.46 µM and the Activity (U-87 MG [10]) was “Active”. The IC50 (DNA topoisomerase 1) was 47.6 µM, the LD50 at 336 h [11] was 750 mg/kg and the Activity (U-87 MG [12]) was “Active”. For the same compound, the Activity (U-87 MG [13]) was “Active”, the AUC(0-t) at 24 h [14] was 46200 ng·h/mL and the inhibition [16] was “Active”. For the same compound, the Activity (U-251 [17]) was “Active”, the Activity (U-87 MG [18]) was “Active” and the inhibition [19] was “Active”. For the same compound, the Activity [20] was “Non-Toxic”.
